This passage reports T/C results from PubChem BioAssay AID330 (DTP/NCI, 2004).

Where “and” joins values, the source holds several entries; their conditions need not be identical. Equal values may be shown once. Inconclusive results and toxic doses are left out.

In this assay the test system is P388 leukemia ip, CD2F1 mice, survival T/C. As to the kind of experiment: NCI In Vivo Anticancer Drug Screen. Data for tumor model P388 Leukemia (intraperitoneal) in CD2F1 (CDF1) mice. To be noted: endpoint: median survival time, higher = longer survival. A digest of the protocol: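 Mice carrying the transplanted tumor received test compound or vehicle. Survival was recorded in each group, and the value is the treated-group measurement divided by that of the vehicle-treated control group.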

Where [1] appears, read: dose: 25.0 mg/kg/injection, schedule: Q01DX005 (ip), vehicle: saline with Tween-80.
The mark [2] stands for this setting: dose: 200.0 mg/kg/injection, schedule: Q01DX005 (ip), vehicle: saline with Tween-80.
Setting [3] is: dose: 50.0 mg/kg/injection, schedule: Q01DX005 (ip), vehicle: saline with Tween-80.
The mark [4] stands for this setting: dose: 100.0 mg/kg/injection, schedule: Q01DX005 (ip), vehicle: saline with Tween-80.
[5] abbreviates: dose: 100.0 mg/kg/injection, schedule: Q04DX003 (ip), vehicle: saline with Tween-80.

For the compound `NS(=O)(=O)OCCCCCCCOS(N)(=O)=O`, the T/C was 109 % of control (dose: 6.0 mg/kg/injection, schedule: Q01DX005 (iv), vehicle: other); 121 % of control (dose: 6.7 mg/kg/injection, schedule: Q04DX003 (ip), vehicle: other); 122 % of control (dose: 8.98 mg/kg/injection, schedule: Q01DX005 (ip), vehicle: other); 112 % of control (dose: 8.98 mg/kg/injection, schedule: Q01DX005 (iv), vehicle: other); 119 % of control (dose: 10.0 mg/kg/injection, schedule: Q04DX003 (ip), vehicle: other); 160 % of control (dose: 11.0 mg/kg/injection, schedule: Q03HX009 (ip), vehicle: other). In addition, the T/C reads like this: (dose: 13.4 mg/kg/injection, schedule: Q01DX005 (iv), vehicle: other) 118 % of control; (dose: 16.5 mg/kg/injection, schedule: Q03HX009 (ip), vehicle: other) 171 % of control; (dose: 16.67 mg/kg/injection, schedule: Q01DX009 (ip), vehicle: other) 168 % of control; (dose: 20.0 mg/kg/injection, schedule: Q01DX001 (iv), vehicle: other) 105 % of control; (dose: 20.0 mg/kg/injection, schedule: Q01DX005 (ip), vehicle: other) 150 % of control and 159 % of control; (dose: 22.5 mg/kg/injection, schedule: Q03HX003 (ip), vehicle: other) 158 % of control. Besides, the T/C is 184 % of control (dose: 24.9 mg/kg/injection, schedule: Q01DX009 (ip), vehicle: other); 152 % of control and 163 % of control under setting [1]; 206 % of control (dose: 25.0 mg/kg/injection, schedule: Q03HX009 (ip), vehicle: other); 124 % of control (dose: 30.0 mg/kg/injection, schedule: Q01DX001 (ip), vehicle: other); 111 % of control (dose: 30.0 mg/kg/injection, schedule: Q01DX001 (iv), vehicle: other); 161 % of control and 181 % of control (dose: 30.0 mg/kg/injection, schedule: Q01DX005 (ip), vehicle: other). For the same compound, the T/C (dose: 33.3 mg/kg/injection, schedule: Q04DX003 (ip), vehicle: other) was 164 % of control; the T/C (dose: 34.0 mg/kg/injection, schedule: Q03HX003 (ip), vehicle: other) was 174 % of control; the T/C (dose: 37.0 mg/kg/injection, schedule: Q03HX009 (ip), vehicle: other) was 232 % of control; the T/C (dose: 37.2 mg/kg/injection, schedule: Q01DX009 (ip), vehicle: other) is 222 % of control; the T/C (dose: 37.2 mg/kg/injection, schedule: Q01DX009 (oral), vehicle: other) is 124 % of control; the T/C (dose: 44.0 mg/kg/injection, schedule: Q01DX005 (ip), vehicle: other) was 192 % of control. Also, the T/C was 194 % of control (dose: 44.89 mg/kg/injection, schedule: Q01DX005 (ip), vehicle: other); 112 % of control (dose: 44.9 mg/kg/injection, schedule: Q01DX001 (iv), vehicle: other); 210 % of control (dose: 50.0 mg/kg/injection, schedule: Q03HX003 (ip), vehicle: other); 185 % of control (dose: 50.0 mg/kg/injection, schedule: Q04DX003 (ip), vehicle: other); 123 % of control (dose: 55.6 mg/kg/injection, schedule: Q01DX009 (ip), vehicle: other); 151 % of control (dose: 67.0 mg/kg/injection, schedule: Q01DX001 (ip), vehicle: other). Further, the T/C (dose: 74.8 mg/kg/injection, schedule: Q04DX003 (ip), vehicle: other) was 212 % of control; the T/C (dose: 82.9 mg/kg/injection, schedule: Q01DX009 (oral), vehicle: other) was 109 % of control; the T/C (dose: 100.0 mg/kg/injection, schedule: Q01DX001 (ip), vehicle: other) was 164 % of control; the T/C (dose: 111.6 mg/kg/injection, schedule: Q04DX003 (ip), vehicle: other) was 210 % of control; the T/C (dose: 125.0 mg/kg/injection, schedule: Q01DX005 (ip), vehicle: saline with Tween-80) is 156 % of control; the T/C (dose: 150.0 mg/kg/injection, schedule: Q01DX001 (ip), vehicle: other) is 205 % of control. Further, the T/C under setting [2] was 117 % of control.
For `CCOC(=O)CCCn1nc(-c2ccc(Cl)cc2)c(-c2ccc(Cl)cc2)c(C#N)c1=O`, the T/C (dose: 100.0 mg/kg/injection, schedule: Q04DX002 (ip), vehicle: saline with Tween-80) is 123 % of control.
Take `CN=C1NC(=O)C(c2ccccc2)S1` (configuration not stated): the T/C is, setting by setting: under setting [3], 99 % of control; under setting [4], 99 % of control.
In the case of `C1CC[N-]CC1.C1CC[N-]CC1.C1CC[N-]CC1.C1CC[N-]CC1.[Cl][Co][Cl]`, the T/C is, setting by setting: (dose: 25.0 mg/kg/injection, schedule: Q04DX003 (ip), vehicle: saline with Tween-80) 100 % of control; (dose: 33.0 mg/kg/injection, schedule: Q01DX009 (ip), vehicle: saline with Tween-80) 91 % of control; under setting [5], 118 % of control.
In the case of `C[CH2][Sn]1([CH2]C)[O]C(=O)CCCCC(=O)[O]1`, the T/C (dose: 12.5 mg/kg/injection, schedule: Q04DX003 (ip), vehicle: saline) is 115 % of control.
As to `Clc1ncccc1-n1cccc1/C=N\N=C/c1cccn1-c1cccnc1Cl`, the T/C by setting is: (dose: 60.0 mg/kg/injection, schedule: Q01DX005 (ip), vehicle: saline with Tween-80) 97 % of control; (dose: 120.0 mg/kg/injection, schedule: Q01DX005 (ip), vehicle: saline with Tween-80) 89 % of control.
`CC1=C(/C=C/C(C)=C/C=C/C(C)=C/C(=O)Nc2ccc(O)cc2)C(C)(C)CCC1`: the T/C under setting [1] was 97 % of control and the T/C under setting [3] was 90 % of control.
On to `COc1ccc(Sc2ccccn2)cc1OC`, for which the T/C reads like this: under setting [3], 101 % of control; under setting [4], 106 % of control; under setting [2], 114 % of control.
Take `C=C1C(=O)OC2CC1CCC1(C)OC1CCC(C)=CCCC2(C)O` (configuration not stated): the T/C by setting is: (dose: 7.5 mg/kg/injection, schedule: Q01DX009 (ip), vehicle: Klucel (hydroxypropylcellulose) (HPC)) 100 % of control and 101 % of control; (dose: 15.0 mg/kg/injection, schedule: Q01DX009 (ip), vehicle: Klucel (hydroxypropylcellulose) (HPC)) 107 % of control and 119 % of control; (dose: 30.0 mg/kg/injection, schedule: Q01DX009 (ip), vehicle: Klucel (hydroxypropylcellulose) (HPC)) 107 % of control and 108 % of control; (dose: 60.0 mg/kg/injection, schedule: Q01DX009 (ip), vehicle: Klucel (hydroxypropylcellulose) (HPC)) 108 % of control.
Take `Clc1ccc(N2C(c3ccccc3)=N[C@@H](N3CCCCC3)[C@@H]2N2CCCCC2)cc1`: the T/C reads like this: (dose: 50.0 mg/kg/injection, schedule: Q01DX005 (ip), vehicle: Klucel (hydroxypropylcellulose) (HPC)) 102 % of control; (dose: 100.0 mg/kg/injection, schedule: Q01DX005 (ip), vehicle: Klucel (hydroxypropylcellulose) (HPC)) 98 % of control; (dose: 200.0 mg/kg/injection, schedule: Q01DX005 (ip), vehicle: Klucel (hydroxypropylcellulose) (HPC)) 93 % of control.
For `Cc1cc(Br)ccc1N=Nc1c(C)noc1C`, the T/C is 104 % of control (dose: 100.0 mg/kg/injection, schedule: Q04DX002 (ip), vehicle: saline); 104 % of control (dose: 200.0 mg/kg/injection, schedule: Q04DX002 (ip), vehicle: saline); 101 % of control (dose: 400.0 mg/kg/injection, schedule: Q04DX002 (ip), vehicle: saline).
`NN1C(=O)/C(=C\c2ccccc2)SC1=S`: the T/C is 107 % of control (dose: 100.0 mg/kg/injection, schedule: Q04DX002 (ip), vehicle: Klucel (hydroxypropylcellulose) (HPC)); 111 % of control (dose: 200.0 mg/kg/injection, schedule: Q04DX002 (ip), vehicle: Klucel (hydroxypropylcellulose) (HPC)); 98 % of control (dose: 400.0 mg/kg/injection, schedule: Q04DX002 (ip), vehicle: Klucel (hydroxypropylcellulose) (HPC)).
Consider `Cc1cccc2nnc(CCCc3nnc4cccc(C)n34)n12`, for which the T/C runs as follows: under setting [5], 98 % of control; (dose: 200.0 mg/kg/injection, schedule: Q04DX003 (ip), vehicle: saline with Tween-80) 97 % of control; (dose: 400.0 mg/kg/injection, schedule: Q04DX003 (ip), vehicle: saline with Tween-80) 96 % of control.
`CC(C)=CCc1c(C)c(O)c(C)c(C)c1O`: the T/C is 100 % of control (dose: 12.5 mg/kg/injection, schedule: Q01DX009 (ip), vehicle: distilled water + Tween-80 + alcohol); 92 % of control (dose: 25.0 mg/kg/injection, schedule: Q01DX009 (ip), vehicle: distilled water + Tween-80 + alcohol); 100 % of control (dose: 50.0 mg/kg/injection, schedule: Q01DX009 (ip), vehicle: distilled water + Tween-80 + alcohol); 95 % of control (dose: 100.0 mg/kg/injection, schedule: Q01DX009 (ip), vehicle: distilled water + Tween-80 + alcohol); 104 % of control (dose: 200.0 mg/kg/injection, schedule: Q01DX009 (ip), vehicle: distilled water + Tween-80 + alcohol).
